From patent US20260345641A1, “COMPOSITIONS AND USES THEREOF” (Algorae Pharmaceuticals Ltd, priority 2023, published 2026)

Experiments:
[1] = tested on: SH-S5Y5 neuroblastoma cells; experiment: Cell viability (MTT) in response to Aβ, in vitro model of Alzheimer's disease; type: cell-based; conditions: 20 μM Aβ, 24 h
From the text: (§1) The SH-S5Y5 neuroblastoma cell line was used for pre-clinical analysis. The SH-S5Y5 cell line is commonly used as a model for neurodegenerative disorders as the cells can be converted to various types of functional neurons by the addition of specific compounds (see, e.g., Xicoy et al., 2017, Molecular Neurodegeneration, 12: 10). In addition, the SH-S5Y5 cell line has been used widely in experimental neurological studies, including analysis of neuronal differentiation, metabolism, and function related to neurodegenerative processes, neurotoxicity and neuroprotection (see, e.g., Datki et al., 2003, Brain Research Bulletin, 62(3): 22-229; and Xie et al., 2010, Chinese Medical Journal, 123(8): 1086-1092).
100 μL MTT reagent was added to each well (final concentration 0.5 mg/mL). Cells were then incubated at 37 °C, 5% CO2 for 4 hours. Solubilization buffer (100 μL) was then added to each well and further incubated at 37 °C, 5% CO2 for 24 hours. Absorbance was then measured by spectrophotometer at 550-600 nm and background corrected at 650 nm.
Amyloid-β (Aβ; 1 mg) was dissolved in 2 mL of 1,1,1,3,3,3-hexafluoro-2-propanol (HFIP). An additional 200 μL of HFIP was then added due to volatility. The Aβ was sealed with parafilm and vortexed for 30 seconds before aliquoting at 100 μL per 1.5 mL tube. HFIP was then evaporated in fume hood for 8 hours. Tubes were then sealed with lid and parafilm and stored at −80 °C. Prior to use, Aβ was reconstituted in DMSO to a final volume of 10% v/v for 10-15 min at RT and vortexed every 3-5 min. F-12 medium was then added to a final volume of 90% v/v. Aβ was then stored at 4 °C for 24 hours and vortexed before use.
Cells were seeded in 96-well microplates and incubated 37 °C, 5% CO2 for 24 hours.

SH-SY5Y cells = experiment: Gene expression analysis by RNA sequencing in the presence of Aβ; type: cell-based, human
From the text: as §1
Total RNA was isolated from cells using TRIzol in accordance with the manufacturer's instructions (Invitrogen, Carlsbad, CA, USA). RNA concentration and quality was assessed using a NanoDrop spectrophotometer. Only samples with a 260/280 ratio of ≥1.8 were used for further analysis.
Messenger RNA (mRNA) was purified from total RNA using poly-T oligo attached magnetic beads. After fragmentation, cDNA synthesis was performed in accordance with the manufacturer's instructions (Illumina, San Diego, CA, USA) to generate a directional and non-directional library. Libraries were checked with Qubit, real-time PCR was performed for quantification, and size distribution detection was performed using the Bioanalyzer. Quantified libraries were pooled and sequenced on an Illumina platform, according to the manufacturer's instructions.
Raw reads were filtered and mapped to human reference genome (GRCh38/hg38) using HISAT2. Differential gene expression analysis was performed using R Package DEG seq2. […] Manual annotation of genes previously associated with specific neurodegenerative disorders and dementias was performed following a text mining analysis.

[2] = oral administration; cited from earlier work

Row | Compound | Cell viability as measured by MTT ([1]; CBD 2.5 μM) | Cell viability as measured by MTT ([1]; CBD 5 μM) | Cell viability as measured by MTT ([1]; CBD 10 μM) | MFSD8 expression (SH-SY5Y cells) | MBP expression (SH-SY5Y cells; 5 μM CBD, Aβ, control 0.089, P 0.012) | GBE1 expression (SH-SY5Y cells; 5 μM CBD, Aβ, control 1.194, P 0.037) | ERCC4 expression (SH-SY5Y cells; 5 μM CBD, Aβ, control 1.970, P 0.037) | MT-TW expression (SH-SY5Y cells; 5 μM CBD, Aβ, control 2.846, P 0.023) | TRAPPC2 expression (SH-SY5Y cells; 5 μM CBD, Aβ, control 3.872, P 0.013) | SLC20A2 expression (SH-SY5Y cells; 5 μM CBD, Aβ, control 7.014, P 0.046) | IRF6 expression (SH-SY5Y cells; 5 μM CBD, Aβ, control 7.365, P 0.012) | LAMP1 expression (SH-SY5Y cells; 5 μM CBD, Aβ, control 34.350, P 0.018) | TAF15 expression (SH-SY5Y cells; 5 μM CBD, Aβ, first TAF15 line, control 14.968, P 0.046) | TAF15 expression (SH-SY5Y cells; 5 μM CBD, Aβ, second TAF15 line, control 15.869, P 0.046) | bioavailability [2]
1 | C=C(C)[C@@H]1CCC(C)=C[C@H]1c1c(O)cc(CCCCC)cc1O [CBD, Cannabidiol] | 0.011 | 0.031 | 0.116 | 2.603 FPKM | 0.046 FPKM | 1.305 FPKM | 2.197 FPKM | 4.309 FPKM | 4.267 FPKM | 7.447 FPKM | 7.774 FPKM | 31.452 FPKM | 17.887 FPKM | 17.095 FPKM | –
2 | COc1ccc2c3c1O[C@H]1C[C@@H](O)C=C[C@@]31CCN(C)C2 [Galantamine] | – | – | – | – | – | – | – | – | – | – | – | – | – | – | high bioavailability
3 | CCN(C)C(=O)Oc1cccc([C@H](C)N(C)C)c1 [Rivastigmine] | – | – | – | – | – | – | – | – | – | – | – | – | – | – | high bioavailability
